Assay results reported in BindingDB's records for patent US20250074891 (Anaxis Pharma, 2025).

How the values were obtained:
Assay in all cases: In Vitro Assay
[1] = target: T1, Mixed lineage kinase domain-like protein (Homo sapiens, UniProt Q8NB16)
T1 sequence (Q8NB16 whole entry): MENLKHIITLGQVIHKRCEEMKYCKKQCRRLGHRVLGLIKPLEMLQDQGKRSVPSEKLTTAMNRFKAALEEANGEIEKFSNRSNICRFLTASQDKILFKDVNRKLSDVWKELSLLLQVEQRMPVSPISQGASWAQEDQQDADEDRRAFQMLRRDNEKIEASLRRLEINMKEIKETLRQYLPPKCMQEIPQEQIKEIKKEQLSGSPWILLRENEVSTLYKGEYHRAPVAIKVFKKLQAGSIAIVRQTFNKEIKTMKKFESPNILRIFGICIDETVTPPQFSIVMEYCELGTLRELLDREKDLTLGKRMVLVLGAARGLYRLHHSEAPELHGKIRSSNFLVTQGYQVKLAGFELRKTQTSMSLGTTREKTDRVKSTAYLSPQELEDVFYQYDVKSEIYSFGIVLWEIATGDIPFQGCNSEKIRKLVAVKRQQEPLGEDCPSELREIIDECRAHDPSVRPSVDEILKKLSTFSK
Experimental: (§1) Kinase assays. For most assays, kinase-tagged T7 phage strains were grown in parallel in 24-well blocks in an E. coli host derived from the BL21 strain. E. coli were grown to log-phase and infected with T7 phage from a frozen stock (multiplicity of infection=0.4) and incubated with shaking at 32° C. until lysis (90-150 minutes).

[2] = target: T2, Receptor-interacting serine/threonine-protein kinase 1 (Homo sapiens, UniProt Q13546)
T2 sequence (Q13546 whole entry): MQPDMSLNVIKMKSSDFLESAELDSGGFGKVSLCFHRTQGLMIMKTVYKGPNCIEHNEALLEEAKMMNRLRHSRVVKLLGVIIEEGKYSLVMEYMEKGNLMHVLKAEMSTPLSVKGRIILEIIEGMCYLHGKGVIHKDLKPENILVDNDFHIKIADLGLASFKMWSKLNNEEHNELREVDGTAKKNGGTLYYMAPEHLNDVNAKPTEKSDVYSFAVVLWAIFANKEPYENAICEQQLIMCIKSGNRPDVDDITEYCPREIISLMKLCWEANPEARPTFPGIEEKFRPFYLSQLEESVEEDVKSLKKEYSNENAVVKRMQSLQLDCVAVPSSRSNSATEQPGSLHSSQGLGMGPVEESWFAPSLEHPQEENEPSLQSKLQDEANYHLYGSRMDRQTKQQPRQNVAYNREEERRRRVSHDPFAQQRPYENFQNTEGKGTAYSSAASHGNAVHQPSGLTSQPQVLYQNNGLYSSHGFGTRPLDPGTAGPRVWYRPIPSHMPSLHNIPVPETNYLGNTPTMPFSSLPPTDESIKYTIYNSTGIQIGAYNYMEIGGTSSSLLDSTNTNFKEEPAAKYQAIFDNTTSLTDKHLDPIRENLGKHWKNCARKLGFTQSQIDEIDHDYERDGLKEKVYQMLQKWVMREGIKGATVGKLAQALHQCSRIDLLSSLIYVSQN
Experimental: as §1

[3] = target: Receptor-interacting serine/threonine-protein kinase 3 (Homo sapiens, UniProt Q9Y572)
Experimental: as §1

Sequence of Receptor-interacting serine/threonine-protein kinase 3 (Q9Y572 whole entry): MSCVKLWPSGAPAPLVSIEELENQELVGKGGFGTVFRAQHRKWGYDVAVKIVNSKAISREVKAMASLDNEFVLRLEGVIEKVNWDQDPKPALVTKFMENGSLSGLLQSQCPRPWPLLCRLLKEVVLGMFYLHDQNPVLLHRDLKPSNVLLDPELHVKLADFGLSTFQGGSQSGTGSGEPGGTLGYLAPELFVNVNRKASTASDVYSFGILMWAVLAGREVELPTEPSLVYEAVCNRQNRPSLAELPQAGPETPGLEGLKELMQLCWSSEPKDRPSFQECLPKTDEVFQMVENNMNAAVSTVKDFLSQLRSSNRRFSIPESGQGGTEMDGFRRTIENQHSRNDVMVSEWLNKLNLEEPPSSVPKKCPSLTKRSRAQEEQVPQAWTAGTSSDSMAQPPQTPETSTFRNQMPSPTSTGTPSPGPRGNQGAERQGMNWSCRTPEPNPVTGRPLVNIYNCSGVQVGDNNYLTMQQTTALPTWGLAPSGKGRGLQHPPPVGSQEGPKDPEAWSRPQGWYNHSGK

Kd [1]	Kd [2] [µM]	Kd [3] [µM]	Structure (SMILES)
< 10 nM	–	–	Cc1ncsc1-c1ccc(CNC(=O)[C@@H]2C[C@@H](O)CN2C(=O)[C@@H](NC(=O)CCCCOc2ccc(Nc3[nH]nc(-c4ccc(NS(=O)(=O)C(F)F)c(OCc5ccc(F)cc5)c4)c3C(N)=O)nc2)C(C)(C)C)cc1 [US20250074891, Compound 1025]
< 10 nM	> 30	> 30	C[C@H](Oc1cc(-c2n[nH]c(Nc3cc(C4CC4)on3)c2C(N)=O)ccc1NS(=O)(=O)C(F)F)c1ccc(F)cc1 [US20250074891, Compound 310]
< 10 nM	> 30	> 30	CCS(=O)(=O)Nc1ccc(-c2n[nH]c(Nc3cnccn3)c2C(N)=O)cc1OC1CCCc2cc(F)ccc21 (stereo not given) [US20250074891, Compound 224]
< 10 nM	> 30	> 30	C[C@H](Oc1cc(-c2n[nH]c(Nc3cc(C4(C)CCOCC4)on3)c2C(N)=O)ccc1NS(=O)(=O)C(F)F)c1ccc(F)cc1 [US20250074891, Compound 301]

Continued, compound first:

Structure (SMILES)	Kd [1]	Kd [2] [µM]	Kd [3] [µM]
CCS(=O)(=O)Nc1ccc(-c2n[nH]c(Nc3cccc(C(F)F)n3)c2C(N)=O)cc1 [US20250074891, Compound 92]	< 10 nM	> 30	–
CCOc1nccc(Nc2[nH]nc(-c3ccc(NS(=O)(=O)CC)cc3)c2C(N)=O)n1 [US20250074891, Compound 98]	< 10 nM	> 30	> 30
NC(=O)c1c(-c2ccc(NS(=O)(=O)CC(F)(F)F)c(OCc3ccc(F)cc3)c2)n[nH]c1Nc1cccc(C(F)(F)F)n1	in the range around 505 nM	> 30	> 30
NC(=O)c1c(-c2ccc(NS(=O)(=O)Cc3ccc(Cl)cc3)cc2)n[nH]c1Nc1cccc(C(F)(F)F)n1 [US20250074891, Compound 60]	–	> 30	> 30
